Data reported in article PMC6747087, “Characterization of Tachyplesin Peptides and Their Cyclized Analogues to Improve Antimicrobial and Anticancer Properties” (International Journal of Molecular Sciences, 2019).
Converted amounts (≈) assume the structure as drawn. Residues, ends and D or L forms follow the SMILES beside them.

Tests used:
[1] = test system: human red blood cells (RBCs); test: Hemolytic activity against human red blood cells; format: cell-based; conditions: human RBCs 0.25% (v/v), 1 h, 37 °C; mean ± SEM
Procedure: (§1) A small amount of blood was collected from three healthy human donors. The blood was immediately diluted in PBS and centrifuged 4–5 times for 1 min at 4000 rpm to wash and separate the human red blood cells (RBCs). RBCs suspension (0.25% (v/v) in PBS) was incubated with peptides with two-fold serial dilutions of the peptide (highest concentration tested was 128 µM, and the lowest was 0.25 µM) in a 96-well plate. Melittin, a membrane disruptive peptide, was used as control. The plates were incubated for 1 h at 37 °C. After incubation, the plates were centrifuged for 5 min at 1000 rpm to pellet any non-lysed RBCs. A total of 100 µL of the supernatant were transferred to a new 96-well plate. The hemoglobin released into the supernatant from lysed cells was measured by absorbance at 415 nm using the Tecan infinite M1000Pro multiplate reader (Männedorf, Switzerland).

E. coli ATCC 25922 = test: MIC against planktonic bacteria (resazurin); format: cell-based, Escherichia coli; conditions: Mueller Hinton Broth
Procedure: (§2) S. aureus ATCC 25923, S. aureus ATCC 6538, E. coli ATCC 25922, and E. coli DC2 CGSC 7139 were grown in Mueller Hinton Broth (Sigma Aldrich, St. Luis, USA). Bacterial cultures in the exponential growth phase were diluted to an OD600nm of 0.001 and seeded into 96-well plates. Peptides at different concentrations, starting at 64 µM and with two-fold serial dilutions (i.e., 64, 32, 16, 8, 4, 2, 1, 0.5, 0.25, 0.125 and 0.0625 µM), were incubated with cells; 0.05% (v/v) resazurin was added to the cultures the next day and the conversion to resorufin was measured after 1 h of incubation at 37 °C using a 565 nm excitation and 584 nm emission wavelength, as above.

E. coli DC2 CGSC 7139 = test: MIC against planktonic bacteria (resazurin); format: cell-based, Escherichia coli; conditions: Mueller Hinton Broth
Procedure: as §2

S. aureus ATCC 25923 = test: MIC against planktonic bacteria (resazurin); format: cell-based, Staphylococcus aureus; conditions: Mueller Hinton Broth
Procedure: as §2

S. aureus ATCC 6538 = test: MIC against planktonic bacteria (resazurin); format: cell-based, Staphylococcus aureus; conditions: Mueller Hinton Broth
Procedure: as §2

[2] = Activity against preformed biofilm (resazurin metabolic activity); format: cell-based, Staphylococcus aureus; conditions: 24 h preformed biofilm, 4 h peptide treatment; read-out: CC50 (reduction of 50% of the metabolically active cell population)
Procedure: S. aureus ATCC 6538 (1 × 10^6 cfu/mL) was cultured in Tryptic Soy Broth, containing 0.25% (w/v) glucose and incubated in 96-well microtiter flat-bottomed polystyrene plates for 24 h at 37 °C. Preformed biofilms were then washed with Mueller Hinton Broth to remove non-adherent cells. Two-fold serial dilutions of each peptide (highest concentration tested was 32 µM and lowest was 0.25 µM) were added to the biofilms for 4 h. Untreated 24 h preformed biofilms were used as a control. The metabolic activity of biofilm-embedded cells was determined using a resazurin reduction fluorometric assay as previously described.

[3] = Cytotoxicity assay (resazurin); format: cell-based, Human; conditions: ± SEM, n ≥ 3
Procedure: Cells were grown in cell culture flasks and incubated in a humidified atmosphere (5% CO2, 37 °C). The cancer cell lines HeLa and the control cell line HaCaT were grown in a DMEM medium supplemented with 1% (v/v) penicillin/streptomycin and 10% (v/v) fetal bovine serum (FBS). The cancer cell lines MM96L, HT144 and WM164 were grown in a RPMI medium supplemented with 1% (v/v) penicillin/[…], 10% (v/v) FBS, 20 mM L-glutamine, and 10 mM sodium pyruvate. Cell cultures were maintained by dilution upon reaching confluence, each 48–72 h. More information about the cell lines is available in Tables S2 and S3.
Cells were seeded into 96-well flat-bottom plates at 5 × 10^3 cells/well and incubated overnight. The medium was removed and replaced with 90 µL serum-free medium, 10 µL of 10x concentrated peptide solutions in PBS were added. PBS was added as blank and 0.1% (v/v) Triton X-100 was used to establish 100% of cell death. After 2 h incubation at 37 °C, 10 µL of filtered 0.05% (w/v) resazurin solution was added to each well [70]. Resazurin is converted to the pink and fluorescent compound resorufin by viable cells. After incubation overnight, the fluorescence intensity (λex = 565 nm and λem = 584 nm) was measured with the Tecan infinite M1000Pro multiplate reader (Männedorf, Switzerland).

in vitro = conditions: 25% (v/v) human serum, 24 h, 37 °C, 50 µM peptide, RP-HPLC peak area vs time zero
Procedure: The serum stability assay was carried out as previously described with some modifications. Briefly, tachyplesin variants were incubated in 25% (v/v) human serum diluted in phosphate-buffered saline (PBS) at a final concentration of 50 µM at 37 °C. Triplicates were collected at time 0 h and 24 h and the serum proteins were precipitated with acetonitrile (1:3 ratio) supplemented with 3% TFA. Samples were kept on ice for 10 min before centrifugation at 17,000× g for 10 min at 4 °C. The peptide containing supernatant of each sample was harvested and quantified using RP-HPLC (10 to 45% solvent B, 1%/min gradient). The percentage of peptide stability in human serum was calculated by comparing the area of the peptide peak obtained at 24 h to that at time 0 h. A linear peptide containing 18 amino acid residues ([…]) was included as a control susceptible to proteolytic degradation.

[4] = Hemolytic activity against human red blood cells; format: cell-based; conditions: at 64 µM peptide, human RBCs; read-out: RBCs lysed (hemolysis)
Procedure: as §1

[5] = HT144, 2 h peptide in serum-free medium
[6] = HaCaT non-cancerous control, 2 h peptide in serum-free medium
[7] = HeLa, 2 h peptide in serum-free medium
[8] = MM96L, 2 h peptide in serum-free medium
[9] = WM164, 2 h peptide in serum-free medium

SMILES	HC50 (concentration required to induce 50% lysis in RBCs) [1]	MIC (E. coli ATCC 25922)	MIC (E. coli DC2 CGSC 7139)	MIC (S. aureus ATCC 25923)	MIC (S. aureus ATCC 6538)	Concentration reducing biofilm metabolic activity by 50% [2]	CC50 [3, 5]	CC50 [3, 6]	CC50 [3, 7]	CC50 [3, 8]	CC50 [3, 9]	peptide remaining in human serum (in vitro)	hemolysis [4]
CC[C@H](C)[C@@H]1NC(=O)CNC(=O)[C@H](CCCNC(=N)N)NC(=O)[C@H](Cc2ccc(O)cc2)NC(=O)[C@@H]2CSSC[C@H](NC1=O)C(=O)N[C@@H](Cc1ccc(O)cc1)C(=O)N[C@@H](CCCNC(=N)N)C(=O)N[C@@H](CCCCN)C(=O)N[C@H]1CSSC[C@H](NC(=O)[C@H](Cc3c[nH]c4ccccc34)NC(=O)[C@H](CCCNC(=N)N)NC(=O)CNC(=O)[C@H](CCCNC(=N)N)NC1=O)C(=O)N[C@@H](Cc1ccccc1)C(=O)N[C@@H](CCCNC(=N)N)C(=O)N[C@@H](C(C)C)C(=O)N2 [cTII, Cyclic Tachyplesin II] (HELM PEPTIDE1{C.F.R.V.C.Y.R.G.I.C.Y.R.K.C.R.G.R.W}$PEPTIDE1,PEPTIDE1,1:R3-14:R3|PEPTIDE1,PEPTIDE1,5:R3-10:R3|PEPTIDE1,PEPTIDE1,1:R1-18:R2$$$V2.0)	64.1 ± 9.4 µM	1 to 2 µM	4 to 8 µM	2 to 8 µM	8 µM (≈ 18.4 µg/mL)	19.4 ± 1.5 µM	800 ± 40 nM	2400 ± 300 nM	7200 ± 400 nM	1100 ± 100 nM	2400 ± 300 nM		
CC[C@H](C)[C@@H]1NC(=O)CNC(=O)[C@H](CCCNC(=N)N)NC(=O)[C@H](Cc2ccc(O)cc2)NC(=O)[C@@H]2CSSC[C@H](NC1=O)C(=O)N[C@@H](Cc1ccc(O)cc1)C(=O)N[C@@H](CCCNC(=N)N)C(=O)N[C@@H](CCCCN)C(=O)N[C@H]1CSSC[C@H](NC(=O)[C@H](Cc3c[nH]c4ccccc34)NC(=O)[C@H](CCCCN)NC(=O)CNC(=O)[C@H](CCCNC(=N)N)NC1=O)C(=O)N[C@@H](Cc1ccccc1)C(=O)N[C@@H](CCCNC(=N)N)C(=O)N[C@@H](C(C)C)C(=O)N2 [cTIII, Cyclic Tachyplesin III] (HELM PEPTIDE1{C.F.R.V.C.Y.R.G.I.C.Y.R.K.C.R.G.K.W}$PEPTIDE1,PEPTIDE1,1:R3-14:R3|PEPTIDE1,PEPTIDE1,5:R3-10:R3|PEPTIDE1,PEPTIDE1,1:R1-18:R2$$$V2.0)	>128 µM	1 to 2 µM	4 to 8 µM	2 to 8 µM	8 µM (≈ 18.2 µg/mL)	18 ± 1.4 µM	900 ± 30 nM	7500 ± 300 nM	9300 ± 400 nM	1700 ± 100 nM	1300 ± 100 nM		
CC[C@H](C)[C@H](NC(=O)[C@H](CC(C)C)NC(=O)[C@H](CCC(N)=O)NC(=O)CNC(=O)[C@H](CO)NC(=O)CNC(=O)CNC(=O)CNC(=O)CNC(=O)[C@@H](N)CCCCN)C(=O)N[C@@H](CC(=O)O)C(=O)N[C@@H](CO)C(=O)N[C@@H](CCSC)C(=O)N[C@@H](C)C(=O)N[C@@H](CC(N)=O)C(=O)N[C@@H](CO)C(=O)N[C@@H](Cc1ccccc1)C(=O)N[C@H](C(=O)O)C(C)C [KGGGGSGQLIDSMANSFV, reference compound] (H-KGGGGSGQLIDSMANSFV-OH)												fully degraded	
CC[C@H](C)[C@@H]1NC(=O)CNC(=O)[C@H](CCCNC(=N)N)NC(=O)[C@H](Cc2ccc(O)cc2)NC(=O)[C@@H]2CSSC[C@H](NC1=O)C(=O)N[C@@H](Cc1ccc(O)cc1)C(=O)N[C@@H](CCCNC(=N)N)C(=O)N[C@@H](CCCCN)C(=O)N[C@H](C(=O)N[C@@H](CCCNC(=N)N)C(N)=O)CSSC[C@H](NC(=O)[C@H](Cc1c[nH]c3ccccc13)NC(=O)[C@@H](N)CCCNC(=N)N)C(=O)N[C@@H](Cc1ccccc1)C(=O)N[C@@H](CCCNC(=N)N)C(=O)N[C@@H](C(C)C)C(=O)N2 [TII, Tachyplesin II] (HELM PEPTIDE1{R.W.C.F.R.V.C.Y.R.G.I.C.Y.R.K.C.R.[am]}$PEPTIDE1,PEPTIDE1,3:R3-16:R3|PEPTIDE1,PEPTIDE1,7:R3-12:R3$$$V2.0)	55.4 ± 6.6 µM	0.125 to 0.5 µM	0.5 to 1 µM	1 to 4 µM	4 to 8 µM	23.1 ± 2.9 µM	2000 ± 100 nM	3700 ± 200 nM	18000 ± 3900 nM	1600 ± 100 nM	1600 ± 100 nM		56%
CC[C@H](C)[C@@H]1NC(=O)CNC(=O)[C@H](CCCNC(=N)N)NC(=O)[C@H](Cc2ccc(O)cc2)NC(=O)[C@@H]2CSSC[C@H](NC1=O)C(=O)N[C@@H](Cc1ccc(O)cc1)C(=O)N[C@@H](CCCNC(=N)N)C(=O)N[C@@H](CCCNC(=N)N)C(=O)N[C@H]1CSSC[C@H](NC(=O)[C@H](Cc3c[nH]c4ccccc34)NC(=O)[C@H](CCCCN)NC(=O)CNC(=O)[C@H](CCCNC(=N)N)NC1=O)C(=O)N[C@@H](Cc1ccccc1)C(=O)N[C@@H](CCCNC(=N)N)C(=O)N[C@@H](C(C)C)C(=O)N2 [cTI, Cyclic Tachyplesin I] (HELM PEPTIDE1{C.F.R.V.C.Y.R.G.I.C.Y.R.R.C.R.G.K.W}$PEPTIDE1,PEPTIDE1,1:R3-14:R3|PEPTIDE1,PEPTIDE1,5:R3-10:R3|PEPTIDE1,PEPTIDE1,1:R1-18:R2$$$V2.0)	106.9 ± 21.0 µM	1 µM (≈ 2.3 µg/mL)	4 µM (≈ 9.22 µg/mL)	2 to 8 µM	8 µM (≈ 18.4 µg/mL)	17.8 ± 3.6 µM	1400 ± 100 nM	7900 ± 500 nM	6700 ± 600 nM	1300 ± 100 nM	2700 ± 100 nM	did not degrade	
